# Patent publication US20250281460A1, “PEGYLATED BILIRUBIN FOR THE TREATMENT OF […], OBESITY, FATTY LIVER DISEASE, CARDIOVASCULAR DISEASES AND TYPE II DIABETES” (The University of Toledo, priority 2019, published 2025)
# What was measured:
# [1] = system: Adrb3 promoter; experiment: Adrb3 promoter luciferase reporter in Cos7 cells with or without PPARα; type: cell-based, murine
# Procedure: To determine if biliverdin/bilirubin is increasing Adrb3 in a PPARa-dependent manner, the proximal (−2816 to +118) and enhancer (−4770 to −4430) regions of the murine promoter in the pGL4.10 construct were cloned. The constructs were transfected with or without PPARα in receptorless Cos7 cells. The proximal promoter had no response with or without PPARα expressed in Cos7 cells (FIGS. 3D-3E). […] Therefore, various areas within the Adrb3 promoter were analyzed using the information from the luciferase promoter data and with analysis of several suspected PPREs in the promoter region.
# An expression vector for Flag-Tagged PPARα was constructed as previously described. The cells were transfected with RXR-SG5 and either WT-Flag PPARα or with a Flag-Tagged PPARα plasmid with one of the following mutations: M330G, A333G, or T283G, in order to determine if binding of bilirubin at previously predicted positions would alter activity. Cells were also transfected with RXR-SG5 to enhance PPAR activity and the PPAR minimal reporter promoter plasmid (3Tk-Luc), whose activity was measured by luciferase, and pRL-CMV Renilla reporter for normalization to transfection efficiency. Transient transfection was achieved using GeneFect (Alkali Scientific, Inc.) during a 24-hour span.
# [2] = system: 3T3-L1 cells; experiment: Real-time PCR of mitochondrial and lipid burning genes in 3T3-L1 cells; type: cell-based, mouse
# Procedure: Whether bilirubin decreases adiposity by enhancing mitochondrial function was evaluated. It was previously shown that bilirubin reduces lipid accumulation in adipocytes. However, it remained to be determined if this occurs by activation of PPARα to reduce adiposity, selective actions on PPARγ, or is a dual PPAR agonist, which together may mediate its glucose- and lipid-lowering effects. First, to determine if bilirubin enhances genes for mitochondrial function, 3T3-L1 cells, a WAT-type murine pre-adipocyte cell line that differentiates to full adipocytes, were treated with increasing concentrations of biliverdin, which is more soluble and is rapidly produced to bilirubin, over the 9-day adipocytic differentiation protocol.
# Total RNA was extracted from mouse tissues using the miRNeasy Mini Kit (Qiagen). Total RNA was read on a NanoDrop 2000 spectrophotometer (Thermo Fisher Scientific, Wilmington, DE) and cDNA was synthesized using High Capacity cDNA Reverse Transcription Kit (Applied Biosystems). PCR amplification of the cDNA was performed by quantitative real-time PCR using TrueAmp SYBR Green qPCR SuperMix (Advance Bioscience). The thermocycling protocol consisted of 3 min at 95° C., 48 cycles of 15 sec at 95° C., 30 sec at 60° C., and based on primer size 0 to 30 sec at 72° C. and finished with a melting curve ranging from 60-95° C. to allow distinction of specific products. Normalization was performed in separate reactions with primers to 36B4.
# [3] = system: 3T3-PPARγ2 cells; experiment: SeaHorse mitochondrial respiration and gene activity in 3T3-PPARγ2 cells; type: cell-based, mouse; details: 3T3-L1 cells overexpressing PPARγ2
# Excerpt: (§1) To investigate the specific role of bilirubin on PPARα or PPARγ as well as mitochondrial function and gene regulation, 3T3-LI cells that overexpressed each receptor (3T3-PPARα or 3T3-PPARγ2) were generated via lentivirus (FIGS. 2A-2B). […] The 3T3-Vector cells had no responses to biliverdin in FIGS. 2A-2B.
# (§2) Cellular respiration was quantified using the Seahorse Extracellular Flux Analyzer XF-96 (Agilent Technologies, Cedar Creek, TX). The Seahorse XF Cell Mito Stress Test Kit (Agilent Technologies, Cat #103015-100) was used for analysis of cellular respiration. BAT or 3T3-L1 cells were seeded on a XF96 cell culture microplate (Agilent 101085-004) at 20,000 cells per well. Cells were then differentiated as previously described for 9 days. […] The oxygen consumption rate (OCR) and extracellular acidification rate (ECAR) were used to quantify the cellular energy phenotype of the cells. After treatment, cells were washed twice with Seahorse Bioscience Assay Media (XF Base media with 25 mM Glucose, 2 mM […], and 1 mM Sodium Pyruvate) then incubated with the buffer for 1 hour in a non-CO2 incubator. The Seahorse Cartridge ports were loaded with […] of assay media with […] FCCP, 10 μM Oligomycin, 5 μM Rotenone/Antimycin A in different ports an hour before assay. […] The raw data and graphs were supplied as an Excel File or Graphpad Prizm file.
# [4] = system: 3T3-L1-WAT adipocytes; experiment: SeaHorse oxygen consumption rate in fully differentiated 3T3-L1-WAT adipocytes; type: cell-based, mouse; details: 50 μM biliverdin, 50 μM WY 14,463, 10 μM rosiglitazone
# Procedure: To compare the effects of bilirubin on the activation of PPARα or PPARγ on mitochondrial function, a SeaHorse XFe96 Analyzer was used to measure oxygen consumption rate (OCR) in fully differentiated 3T3-L1-WAT adipocytes treated with 50 μM biliverdin, 50 μM WY 14,463 (PPARα agonist), or 10 μM rosiglitazone (PPARγ-agonist). […]. Rosiglitazone, but not biliverdin or WY 14,643, enhanced the coupling efficiency. None of the ligands affected non-mitochondrial respiration, basal respiration, or proton leak.
# as §2
# [5] = system: 3T3-Vector cells; experiment: SeaHorse mitochondrial respiration in 3T3-Vector cells; type: cell-based, mouse; details: lentiviral empty vector control cells
# Excerpt: as §1, §2
# [6] = system: BAT cells; experiment: Lipid accumulation over differentiation of BAT cells; details: increasing doses over the differentiation of the BAT cells
# Excerpt: Upon differentiation, cells were stained with Nile Red to visualize lipid content, and densitometry was used as a direct measure as previously described.
compound,measurement,setting,value
C=CC1=C(C)/C(=C/C2=NC(=C\c3[nH]c(/C=C4\NC(=O)C(C)=C4C=C)c(C)c3CCC(=O)O)/C(CCC(=O)O)=C2C)NC1=O [biliverdin],"luciferase activity, enhancer region with mutated PPREs",[1]; mutations in each PPRE separately,no induction
same,"luciferase activity, enhancer (−4770 to −4430) region",[1]; with PPARα overexpression,significantly higher
same,"luciferase activity, proximal (−2816 to +118) promoter",[1]; with or without PPARα expressed in Cos7 cells,no response
same,Ucp1 mRNA,[2]; 1 μM,significantly heightened
same,Cpt1 mRNA expression,[2]; 50 μM,significantly increased
same,Ucp1 mRNA expression,[2]; 50 μM,significantly increased
same,gene related activity,[3],did not have significant increase
same,mitochondrial respiration,[3],no significant changes
same,ATP production,[4],significantly elevated
same,mitochondrial OCR for maximum respiration,[4],significantly increased
same,responses (mitochondrial respiration),[5],no responses
same,lipid accumulation,[6],no impact
